The target of the test is T1, Factor VIII (Homo sapiens, UniProt P00451).
T1 construct: large-scale purification of a full-length recombinant Factor VIII
Kind of test: Factor VIII microplate assay. The test is classed as binding. As for the experimental part: On the basis of the results obtained from the initial collection, additional ligands were prepared and screened in relation to Factor VIII binding and elution behaviour. These studies have been performed either using a simple microtitre plate assay (resin volume 40 μL/well) to determine approximate Factor VIII binding affinity followed by more detailed studies using gravity-flow packed resin columns (0.5 mL resin volume). These packed column studies are more accurate and allow simple experiments to be conducted to determine absolute resin affinity by gradual saturation of the column (200 μL, […]) and following the protein concentration in the eluate after serial addition of each factor VIII aliquot applied to the column. In this way, the binding can be established and elution behaviour of each ligand in parallel.

“Also recorded” adds a separate entry of the source.

The source of these data is patent publication US20100203650A1, “BIOMOLECULE BINDING LIGANDS” (CAMBRIDGE ENTERPRISE LIMITED, priority 2007, published 2010).

T1 sequence (P00451 20-2351): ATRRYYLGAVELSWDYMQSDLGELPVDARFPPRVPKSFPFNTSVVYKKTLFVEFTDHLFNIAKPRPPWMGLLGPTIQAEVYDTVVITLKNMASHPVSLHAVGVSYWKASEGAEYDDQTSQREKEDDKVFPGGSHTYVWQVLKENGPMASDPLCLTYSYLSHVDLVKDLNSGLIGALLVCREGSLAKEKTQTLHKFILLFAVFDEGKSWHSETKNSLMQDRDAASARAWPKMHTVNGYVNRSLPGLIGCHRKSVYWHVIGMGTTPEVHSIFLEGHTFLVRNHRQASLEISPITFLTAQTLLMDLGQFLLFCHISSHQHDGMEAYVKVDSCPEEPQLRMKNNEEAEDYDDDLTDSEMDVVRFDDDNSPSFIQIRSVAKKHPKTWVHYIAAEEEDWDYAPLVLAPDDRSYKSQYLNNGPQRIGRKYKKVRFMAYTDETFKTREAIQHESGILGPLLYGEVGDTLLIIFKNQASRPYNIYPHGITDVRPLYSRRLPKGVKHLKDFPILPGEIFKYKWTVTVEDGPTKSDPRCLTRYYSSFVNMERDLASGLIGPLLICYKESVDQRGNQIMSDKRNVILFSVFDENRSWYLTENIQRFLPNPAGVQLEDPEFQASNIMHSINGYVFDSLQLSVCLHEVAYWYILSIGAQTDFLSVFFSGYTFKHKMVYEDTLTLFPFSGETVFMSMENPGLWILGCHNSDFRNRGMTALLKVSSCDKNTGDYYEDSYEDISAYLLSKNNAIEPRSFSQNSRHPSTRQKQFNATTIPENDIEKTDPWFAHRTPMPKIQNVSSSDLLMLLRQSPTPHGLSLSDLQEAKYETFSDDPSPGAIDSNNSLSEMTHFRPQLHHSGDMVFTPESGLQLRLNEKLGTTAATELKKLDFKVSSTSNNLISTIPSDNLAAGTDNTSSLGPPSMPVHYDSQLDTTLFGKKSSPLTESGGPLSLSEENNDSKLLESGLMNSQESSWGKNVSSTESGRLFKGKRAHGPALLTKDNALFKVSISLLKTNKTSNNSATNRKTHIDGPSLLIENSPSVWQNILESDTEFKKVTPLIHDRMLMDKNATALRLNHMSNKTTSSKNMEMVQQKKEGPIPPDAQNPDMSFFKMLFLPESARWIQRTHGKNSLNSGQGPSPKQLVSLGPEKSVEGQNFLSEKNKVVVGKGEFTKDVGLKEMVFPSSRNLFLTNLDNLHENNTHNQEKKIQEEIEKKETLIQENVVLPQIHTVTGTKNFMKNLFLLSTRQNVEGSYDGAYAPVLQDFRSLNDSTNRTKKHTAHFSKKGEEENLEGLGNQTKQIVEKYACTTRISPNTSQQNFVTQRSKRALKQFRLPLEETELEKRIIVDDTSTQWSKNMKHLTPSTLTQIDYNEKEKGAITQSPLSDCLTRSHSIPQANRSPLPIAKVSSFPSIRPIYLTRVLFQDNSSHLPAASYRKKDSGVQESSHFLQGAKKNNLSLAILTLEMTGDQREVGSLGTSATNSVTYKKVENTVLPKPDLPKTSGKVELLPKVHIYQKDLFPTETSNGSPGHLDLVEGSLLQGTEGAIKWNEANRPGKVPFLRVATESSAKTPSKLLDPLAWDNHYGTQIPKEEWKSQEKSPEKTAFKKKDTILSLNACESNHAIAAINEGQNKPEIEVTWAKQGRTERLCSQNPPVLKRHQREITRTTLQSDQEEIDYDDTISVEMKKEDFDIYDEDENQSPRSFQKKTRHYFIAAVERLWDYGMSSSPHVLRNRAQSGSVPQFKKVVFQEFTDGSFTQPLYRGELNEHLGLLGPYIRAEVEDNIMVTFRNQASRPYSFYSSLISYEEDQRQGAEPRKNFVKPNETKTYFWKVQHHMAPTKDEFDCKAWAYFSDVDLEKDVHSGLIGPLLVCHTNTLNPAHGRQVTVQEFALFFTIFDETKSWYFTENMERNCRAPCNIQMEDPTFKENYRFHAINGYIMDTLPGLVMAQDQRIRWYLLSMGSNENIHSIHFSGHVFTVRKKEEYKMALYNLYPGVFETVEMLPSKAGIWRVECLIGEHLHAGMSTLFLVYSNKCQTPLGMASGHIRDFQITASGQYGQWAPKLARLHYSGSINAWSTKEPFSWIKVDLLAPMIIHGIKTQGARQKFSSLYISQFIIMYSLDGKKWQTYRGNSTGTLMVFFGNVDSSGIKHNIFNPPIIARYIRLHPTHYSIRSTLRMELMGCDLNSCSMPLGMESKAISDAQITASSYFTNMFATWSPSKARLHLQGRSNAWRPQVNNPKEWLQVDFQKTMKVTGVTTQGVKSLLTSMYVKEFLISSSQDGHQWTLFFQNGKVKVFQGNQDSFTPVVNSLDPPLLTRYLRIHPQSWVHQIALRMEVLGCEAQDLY

For the compound `COC(=O)c1cccc(Nc2nc(C)nc(Nc3cccc4c(S(=O)(=O)OC)cccc34)n2)c1` [34/43], the “Factor VIII binding (in words)” value was “strongest Factor VIII binding and elution characteristics; also recorded: one of the highest Factor VIII binding potential”. Besides, the “Factor VIII Bound” value (initial collection U1-U4 and comparison ligand) stood at 106.3 µg/mL.
